Three molecules from patent US8030304B2, “Thiazole pyrazolopyrimidines CRF1 receptor antagonists” (Eli Lilly and Company, priority 2006, dated 2011) can be followed below.

Changes are numbered by the printed parent chain.

Data set [1] in a line: Bioavailability and pharmacokinetic properties (volume of distribution, plasma clearance).
Source text: Bioavailability and Pharmacokinetic Properties
The volume of distribution (Vdist) relates the amount of the drug in the body to the concentration of the drug in the blood or plasma. […] The volume of distribution reflects the extent to which the drug is present in the extravascular tissue. A large volume of distribution reflects the tendency of a compound to bind to the tissue components compared with plasma protein binding.
To test for volume of distribution, Male Sprague Dawley rats (N=3) are administered a single 1 mg/kg intravenous dose of compound. Multiple plasma samples are collected at time points from 0.08 to 24 hours post-dose. The plasma samples are analyzed by LC/MS/MS to determine the plasma concentrations. Plasma pharmacokinetic calculations are performed to determine the pharmacokinetic parameters including Vdist and plasma clearance (Clp).
Further, the plasma clearance (CLp) is a measure of the rate of removal of the drug from the body. Following an intravenous dose and first-order kinetics, the plasma clearance may be determined using the following equation: CLp=Dose/AUC, where
AUC is the total area under the curve that describes the concentration of the drug in the plasma as a function of time from zero to infinity.
The target of another data set is T1, human CRF1 (Homo sapiens, UniProt P34998).
T1 construct: expressed in transfected cells
T1 sequence (P34998 24-415): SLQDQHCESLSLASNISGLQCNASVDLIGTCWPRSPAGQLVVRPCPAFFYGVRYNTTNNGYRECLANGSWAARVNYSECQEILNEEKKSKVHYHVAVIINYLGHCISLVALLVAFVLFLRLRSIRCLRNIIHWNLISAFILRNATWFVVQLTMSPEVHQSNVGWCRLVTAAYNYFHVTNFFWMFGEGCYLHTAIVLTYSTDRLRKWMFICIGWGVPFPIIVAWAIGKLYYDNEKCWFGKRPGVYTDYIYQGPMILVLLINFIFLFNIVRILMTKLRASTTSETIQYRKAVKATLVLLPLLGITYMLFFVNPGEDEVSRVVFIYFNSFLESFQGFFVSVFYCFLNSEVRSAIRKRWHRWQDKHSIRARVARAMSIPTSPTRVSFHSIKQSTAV
Nature of the data set: CRF1 filter binding assay. As to conditions: HEK-hCRF1 membranes, 125I-sauvagine; read-out: Ki (inhibition constant). The procedure:
CRF1 Filter Binding Assay
The limitations of plasmid-based human CRF1 expression, in terms of generating a recombinant cell line with sufficient receptor density to develop a binding assay, are overcome by using a Phoenix retroviral expression system licensed from Stanford. The stable HEK-hCRF1 cell line is used to prepare membranes and binding reactions (200 μL) are set up as follows: 50 μL of ^125I-sauvagine (0.2 nM final), 50 μL compound and 100 μL CRF1 membrane (25 μg/reaction). The reactions are incubated at room temperature for 2 h and then terminated by filtration through pre-treated FB Millipore glass fiber filter plates (96 well). The plates are washed twice with ice-cold assay buffer (50 mM tris, 12.5 mM NaCl, 1 mM EDTA, 10 mM MgCl2, 0.05% BSA, pH 7.2), air dried over night and counted with 100 μL Microscint 40 in a MicroBeta counter. Non-specific binding (NSB) is determined in the presence of 0.5 μM non-labeled sauvagine. Triplicate determinations are typically run and the median data points plotted by Graph Pad Prism.

Another data set is described as follows: in vivo. As to conditions: male, Sprague Dawley, rat, iv.
Another data set deals with T2, human CRF2 (Homo sapiens, UniProt Q13324).
T2 construct: expressed in transfected cells
T2 sequence (Q13324 1-411): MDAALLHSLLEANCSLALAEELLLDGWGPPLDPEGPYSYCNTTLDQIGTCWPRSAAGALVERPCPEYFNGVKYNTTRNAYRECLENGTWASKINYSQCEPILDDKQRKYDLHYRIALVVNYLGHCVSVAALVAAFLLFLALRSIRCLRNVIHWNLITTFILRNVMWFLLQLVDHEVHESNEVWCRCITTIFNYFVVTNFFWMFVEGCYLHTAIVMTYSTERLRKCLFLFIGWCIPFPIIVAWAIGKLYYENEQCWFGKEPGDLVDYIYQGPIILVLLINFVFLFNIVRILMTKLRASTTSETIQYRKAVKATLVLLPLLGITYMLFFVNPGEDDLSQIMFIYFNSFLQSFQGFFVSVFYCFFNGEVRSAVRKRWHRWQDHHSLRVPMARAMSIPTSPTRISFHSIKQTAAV
Nature of the data set: CRF2 filter binding assay. As to conditions: at a concentration of 50 μM. The procedure: CRF2 Filter Binding Assay
The limitations of plasmid-based human CRF2 expression, in terms of generating a recombinant cell line with sufficient receptor density to develop a binding assay, are overcome by using a Phoenix retroviral expression system licensed from Stanford. The stable HEK-hCRF2 cell line is used to prepare membranes and binding reactions (200 μL) are set up as follows: 50 μL of ^125I-sauvagine (0.2 nM final concentration), 50 μL compound and 100 μL CRF2 membrane (25 μg/reaction). The reactions are incubated at room temperature for 2 hours and then terminated by filtration through pre-treated FB Millipore glass fiber filter plates (96 well). The plates are washed twice with ice-cold assay buffer (50 mM tris, 12.5 mM NaCl, 1 mM EDTA, 10 mM MgCl2, 0.05% BSA, pH 7.2), air dried over night and counted with 100 μL Microscint 40 in a MicroBeta counter. Non-specific binding (NSB) is determined in the presence of 0.5 μM non-labeled sauvagine. Alternatively, compounds are evaluated using a Scintillation Proximity assay. […] Bound radioactivity is assessed using a Wallac Trilux scintillation counter. Binding is assessed typically using triplicate determinations and the median data points plotted by Graph Pad Prism. […]

Data set [2] has as its target T3, binding of 125I-sauvagine to the cerebellum (Rattus norvegicus, UniProt P35353).
T3 construct: from tissue; host or cells: rat cerebellum
T3 sequence (P35353 24-415): T1 sequence (P34998 24-415) with H6R, S9N, A13T, I16V, M153V, G163A, I209V, Y229H, H356R
Nature of the data set: In vivo potency assessment using ex vivo binding. As to conditions: oral route. The procedure:
In Vivo Potency Assessment Using Ex Vivo Binding
To assess in vivo potency, a compound of the present invention is evaluated using ex vivo binding. Using the procedures as provided in D. R. Gehlert et al., EJP 509: 145-153 (2005), a compound is administered to a rat via the oral route.

Where [3] appears, read: male, Sprague Dawley, rat, plasma, iv, 1 mg/kg.

Regarding `CCCN(CCC)c1cc(C)nc2c(-c3cnc(N(C)C)cc3C)c(C)nn12` [NBI30775], the “rat Vdist (volume of distribution)” value in data set [1] (single intravenous dose of 1 mg/kg, analyzed separately) is 76 L/kg.
In general, Vd refers to the apparent volume that relates the amount in the body to the concentration in plasma or blood. Low values mean little distribution into tissue, high ones wide distribution into tissue. By clearance is commonly meant a measure of how efficiently the substance is removed, as volume per time. Regarding `CCCCN(CC)c1nc(C)nc2c1c(C)cn2-c1c(C)cc(C)cc1C` [CP154526], in data set [1] (setting [3]), the Vd turned out to be 114 L/kg and the clearance turned out to be 83 mL/min/kg.
A word on the Ki: it is the equilibrium dissociation constant of an inhibitor or competing ligand from its target. The inhibition is the share of the control response that was lost under treatment. As for `CCC(CC)c1cc(C)nc2c(-c3sc(N(C)C)nc3Cl)c(C)nn12` [Example 15, {4-Chloro-5-[7-(1-ethyl-propyl)-2,5-dimethyl-pyrazolo[1,5-a]pyrimidin-3-yl]-thiazol-2-yl}-dimethyl-amine], the Ki at human CRF1 worked out at 6.2 nM. Also, in “in vivo”, the clearance stood at 23.6 mL/min/kg. In “in vivo” (1 mg/kg), this molecule showed a Vd of 7.2 L/kg. Further, at human CRF2, the inhibition at 50 µM stood at 11%. This molecule also registered an inhibition at 10 mg/kg in data set [2] of 65%.
